Usually half-life stands for the time needed for the level to fall by half in the phase considered. Lower therefore signals rapid decline.

Peptide text beside a SMILES is read from it. * marks the point of attachment. Orn(α-tetramethylguanidino) = CN(C)C(=N[C@@H](CCCN)C(=O)*)N(C)C

Series [1] concerns 70S ribosome, ribosomal binding site of Api88. Briefly: Fluorescence polarization competition with cf-Api88. The settings on record: Figure S3, twice in triplicate. The arrangement: species or system Escherichia coli. The procedure:
Ki was determined for ribosome extracts using cf-labeled and unlabeled peptides in ribosome preparation buffer. Black 384-well plates were prepared as described above. Unlabeled peptides or antibiotics (20 µL, 656 µmol/L) were added and 2-fold serially diluted in 23 wells in ribosome preparation buffer. A ribosome solution was prepared by adjusting the ribosome concentration to ~90% of the upper Kd plateau obtained for the cf-labeled peptide to be studied and added to each well (10 µL). After incubation (28 ± 1 °C, 90 min), the cf-labeled peptide (10 µL, 80 nmol/L) was added and incubated (28 ± 1 °C, 90 min). The fluorescence polarization was measured on a […] microplate reader in the top read position (λexc = 485 nm, λem = 535 nm) in triplicate on at least two different days. Data were fitted to a nonlinear, dose–response logistical transition equation [y= y0 + a/(1 + (x/x0)b)] using the Levenberg–Marquardt algorithm, with the half-maximal inhibition constants (IC50) represented by the x0 coefficients (GraphPad Prism for Windows v. 5.02, San Diego, CA, USA). Inhibition constants, Ki, were calculated as described by Mathias and Jung.
Pept ide Concent r at ion [ nM]
Figure S3. Fluorescence polarization assay testing Api88 an d Api137 in competition with cf-Api88 and cf-Api137, respectively, for the corresponding ribosomal binding sites. Experiments were done twice in triplicates. […]
In general terms: In fluorescence polarisation assays a small probe gives low polarisation when free and higher when bound to something large.

Another series in a line: in vitro. The conditions noted are these: E. coli BW25113 lysate.

Description for in vitro: Peptides (7.5 µg) were mixed with lysates of E. coli Rosetta pLysS or E. coli BW25113 (protein concentration ~0.5 g/L) and incubated on an orbital shaker (37 °C, 750 rpm). After 0, 4, 8 and 24 h, aliquots were taken in duplicate or triplicate, and trichloroacetic acid was added to achieve a final concentration of 3% (v/v). Samples were incubated on ice (10 min) and centrifuged (13,000× g, 5 min). The supernatant was neutralized with aqueous sodium hydroxide (1 mol/L) and stored at −20 °C. Samples were separated on an ACQUITY arc system (Waters GmbH, Eschborn, Germany) using a Jupiter C18 column (ID: 2 mm). Elution was achieved using a linear aqueous acetonitrile gradient containing 0.1% (v/v) formic acid. The absorbance was recorded on a 2489 UV/VIS detector at 214 nm (Waters GmbH), and mass spectra were acquired online with an ion trap mass spectrometer equipped with an electrospray ionization source (ESI-IT-MS, Esquire HCT, Bruker Daltonics, Billerica, MA, USA). Peptide recoveries and the corresponding metabolites were calculated based on the peak areas (UV) of the initial peptide peak area at 0 min.

For `CC[C@H](C)[C@H](NC(=O)[C@H](Cc1ccc(O)cc1)NC(=O)[C@@H](NC(=O)[C@@H]1CCCN1C(=O)[C@H](CCCNC(=N)N)NC(=O)[C@H](CC(N)=O)NC(=O)[C@H](CC(N)=O)NC(=O)[C@H](CCCN)N=C(N(C)C)N(C)C)C(C)C)C(=O)N1CCC[C@H]1C(=O)N[C@@H](CCCNC(=N)N)C(=O)N1CCC[C@H]1C(=O)N[C@@H](CCCNC(=N)N)C(=O)N1CCC[C@H]1C(=O)N1CCC[C@H]1C(=O)N[C@@H](Cc1c[nH]cn1)C(=O)N1CCC[C@H]1C(=O)N[C@@H](CCCNC(=N)N)C(=O)N[C@@H](CC(C)C)C(N)=O` [Api88] ({Orn(α-tetramethylguanidino)}-NNRPVYIPRPRPPHPRL-NH2), the “inhibition of the binding of cf-labeled Api88” value in series [1] is on record as “did not inhibit”.
`CC[C@H](C)[C@H](NC(=O)[C@@H]1CCCN1C(=O)[C@H](CCCNC(=N)N)NC(=O)[C@H](CC(N)=O)NC(=O)[C@H](CC(N)=O)NC(=O)CN)C(=O)N[C@@H](Cc1ccc(O)cc1)C(=O)N[C@H](C(=O)N1CCC[C@H]1C(=O)N[C@@H](CCCNC(=N)N)C(=O)N1CCC[C@H]1C(=O)N[C@@H](CCCNC(=N)N)C(=O)N1CCC[C@H]1C(=O)N1CCC[C@H]1C(=O)N[C@@H](Cc1c[nH]cn1)C(=O)N1CCC[C@H]1C(=O)N[C@@H](CCCNC(=N)N)C(=O)N1CCC[C@H]1C(=O)N[C@H](C(=O)N[C@@H](CCCNC(=N)N)C(=O)N[C@H](C(=O)O)C(C)C)[C@@H](C)CC)[C@@H](C)CC` [Api805] (H-GNNRPIYIPRPRPPHPRPIRV-OH; N-terminus assumed) displayed a half-life in the series “in vitro” of more than 24 h.
